Entries after “also recorded” stand apart in the source; their conditions may differ.
Key:
STIM1 mutated proteins = experiment: SOCE in HEK cells overexpressing wild-type or mutated STIM1 (Fura2-AM single cell analysis); type: cell-based, human; settings: 10 μM
Procedure: (§1) SOCE induced by tBHQ in wilde-type HEK cells or HEK cells overexpressing the indicated STIM1 (A) or Orai1 (B) proteins. Average traces of approx. 600 cells from 20 coverslips performed on 4 separate days for each condition.
(§2) 3-(1-(4-(4-(ethoxycarbonyl)-5-(trifluoromethyl)-1H-pyrazol-1-yl)phenyl)-1H-1,2,3-triazol-4-yl)benzoic acid 10 μM impairs SOCE both in Wild-type and STIM1 (A) or Orai1 (B) mutated cells.
(§3) HEK STIM1 c.326A>G p.H109R (A) and HEK Orai1 c.734C>T p.P245L (B) cells were assayed for a calcium response to different concentrations of 3-(1-(4-(4-(ethoxycarbonyl)-5-(trifluoromethyl)-1H-pyrazol-1-yl)phenyl)-1H-1,2,3-triazol-4-yl)benzoic acid (1-3-10-30-100 μM) using Fura2-AM single cell analysis. Concentration-response curves represent the AUC % of 3-(1-(4-(4-(ethoxycarbonyl)-5-(trifluoromethyl)-1H-pyrazol-1-yl)phenyl)-1H-1,2,3-triazol-4-yl)benzoic acid.
(§4) Human embryonic kidney HEK cells were obtained from ATCC (ATCC® CRL-1573™, Rockville, Md., USA) and were cultured in Dulbecco's Modified Eagle's Medium (DMEM; Sigma-Aldrich, Italy), supplemented with 10% heat-inactivated FBS (Gibco, Italy), 1-glutamine 50 mg/mL (Sigma-Aldrich, Italy), penicillin 10 U/mL and streptomycin […] (Sigma-Aldrich, Italy) at 37° C., under a 5% CO2 humidified atmosphere. […]

[1] = system: Store Operated Calcium Entry (SOCE) in BV-2 cells; experiment: Fluo-4 fluorimetric assay of tBHQ-induced store operated calcium entry in BV-2 cells; type: cell-based, mouse
Procedure: (A) BV-2 cells were plated in poly-d-lysine coated 24-well plate and incubated overnight. After 24 hours, cells were loaded with 2 μM Fluo-4 and placed in an extracellular solution containing 0 mM Ca^2+. Stores were depleted with 50 μM tBHQ and calcium influx was stimulated by the addition of 2 mM Ca^2+ alone (Ctrl), or in conbination with: compound with no activity (NM-3A), and compounds that positively (4-(1-(4-(3,5-bis(trifluoromethyl)-1H-pyrazol-1-yl)phenyl)-1H-1,2,3-triazol-4-yl)benzoic acid) and negatively (3-(1-(4-(4-(ethoxycarbonyl)-5-(trifluoromethyl)-1H-pyrazol-1-yl)phenyl)-1H-1,2,3-triazol-4-yl)benzoic acid) regulate SOCE. Calcium responses are expressed as changes in fluorescence intensity before and after the addition of selected modulators. (B) BV-2 cells were assayed for a calcium response to different concentrations of 3-(1-(4-(4-(ethoxycarbonyl)-5-(trifluoromethyl)-1H-pyrazol-1-yl)phenyl)-1H-1,2,3-triazol-4-yl)benzoic acid and 4-(1-(4-(3,5-bis(trifluoromethyl)-1H-pyrazol-1-yl)phenyl)-1H-1,2,3-triazol-4-yl)benzoic acid (0.1-0.3-1-3-10-30-100 μM) using Fluo-4 fluorimetric assay. Concentration-response curves represent the AUC % of both compounds as compared to positive control.
Immortalized primary mouse microglial BV-2 cells were obtained from ATCC (ATCC® CRL-2540™, Rockville, Md., USA) and were cultured in Dulbecco's Modified Eagle's Medium (DMEM; Sigma-Aldrich, Italy), supplemented with 10% heat-inactivated FBS (Gibco, Italy), 1-glutamine 50 mg/mL (Sigma-Aldrich, Italy), penicillin 10 U/mL and streptomycin […] (Sigma-Aldrich, Italy) at 37° C., under a 5% CO2 humidified atmosphere. For experiments, the cells were plated 2×10^4 per ml in 24 well plates) or onto glass coverslips at concentrations of 4×10^4 per mL (24 mm diame-ter coverslips in 6 well plates).
BV-2 cells were loaded with 5 μM Fluo-4 AM in presence of 0.02% of Pluronic-127 (both from Life Technologies, Italy) and 10 μM sulfinpyrazone in Krebs-Ringer buffer (KRB, 135 mM NaCl, 5 mM KCl, 0.4 mM KH2PO4, 1 mM MgSO4, 5.5 mM glucose, 20 mM HEPES, pH 7.4) containing 2 mM CaCl2 (30 min, room temperature). Subsequently, cells were washed and incubated with KRB for other 30 min to allow de-esterification of Fluo-4 AM. Experiments were carried out prior to and during exposure of the cells to the Ca^2+-free solution. In the absence of Ca^2+, the intracellular Ca^2+ stores were depleted by 2,5-t-butylhydroquinone (tBHQ, 50 μM; Sigma-Aldrich, Italy), a SERCA poison, and then calcium 2 mM was re-added to the extracellular solution. Fluorescence is then monitored sequentially for a second in each well for 600 seconds with excitation at 494 nm and an emission wavelength at 516 nm on the V3 Victor plate-reader (Perkin Elmer), generating time-curves for each well. Data were analysed using Microsoft Excel and GraphPad Prism.
The percentage of SOCE inhibition for each compound was determined based on value of tBHQ-induced calcium influx into BV-2 cells (Table 2).

[2] = system: Store Operated Calcium Entry (SOCE) in Jurkat cells; experiment: Fura-2 single-cell Ca2+ measurement of tBHQ-induced SOCE in Jurkat cells; type: cell-based, human; settings: Homo sapiens, SOCE modulation based on tBHQ-induced calcium influx
Procedure: Immortalized line of human T lymphocyte Jurkat cells were achieved from ATCC (ATCC® TIB-152™, Rockville, Md., USA) and were cultured in Roswell Park Memorial Institute Medium (RPMI 1640; Sigma-Aldrich, Italy), supplemented with 10% heat-inactivated FBS (Gibco, Italy), 1-glutamine 50 mg/mL (Sigma-Aldrich, Italy), penicillin 10 U/mL and streptomycin […] (Sigma-Aldrich, Italy) at 37° C., under a 5% CO2 humidified atmosphere. For experiments, the cells were plated onto glass coverslips at concentrations of 6×10^4 per mL (24 mm diameter coverslips in 6 well plates).
Compounds were also tested on Jurkat cells in single-cell analysis using Fura-2 AM on cover-slips. Jurkat cells were loaded with 5 μM Fura-2 AM in presence of 0.02% of Pluronic-127 (both from Life Technologies, Italy) and 1 μM sulfinpyrazone in Krebs-Ringer buffer (KRB, 135 mM NaCl, 5 mM KCl, 0.4 mM KH2PO4, 1 mM MgSO4, 5.5 mM glucose, 20 mM HEPES, pH 7.4) containing 2 mM CaCl2 (30 min, room temperature). Afterwards, cells were washed and incubated with KRB for other 30 min to allow de-esterification of Fura-2AM. To measure store operated calcium entry, changes in cytosolic Ca^2+ were monitored upon depletion of the intracellular Ca^2+ stores. Experiments were carried out prior to and during exposure of the cells to the Ca^2+-free solution. In the absence of Ca^2+, the intracellular Ca^2+ stores were depleted by inhibition of the vesicular Ca^2+ pump by 2,5-t-butylhydroquinone (tBHQ, 50 μM; Sigma-Aldrich, Italy). Re-addition of 2 mM Ca^2+ allowed assessing the SOCE. During the experiments the cover-slips were mounted into acquisition chamber and placed on the stage of a Leica DMI6000 epi-fluorescent microscope equipped with S Fluor ×40/1.3 objective. Fura-2 was excited by alternate 340 and 380 nm using a Polychrome IV mono-chromator (Till Photon-ics, Germany) and the probe emission light was filtered through 520/20 band-pass filter and collected by a cooled CCD camera (Hamamatsu, Japan). The fluorescence signals were acquired and processed using MetaFluor software (Molecular Device, Sun-Nyvale, C A, USA). To quantify the differences in the amplitudes of Ca^2+ transients the ratio values were normalized using the formula ΔF/F0 (referred to as normalized Fura-2 ratio, “Norm. Fura ratio”). The percentage of SOCE modulation for each of 15 compounds was determined based on value of tBHQ-induced calcium influx into Jurkat cells. Data were analysed using Microsoft Excel and GraphPad Prism.

Orai1 mutated proteins = experiment: SOCE in HEK cells overexpressing wild-type or mutated Orai1 (Fura2-AM single cell analysis); type: cell-based, human; settings: 10 μM
Procedure: as §1, §2, §3, §4

CCOC(=O)c1cnn(-c2ccc(-n3cc(-c4cccc(C(=O)O)c4)nn3)cc2)c1C(F)(F)F [3-(1-(4-(4-(ethoxycarbonyl)-5-(trifluoromethyl)-1H-pyrazol-1-yl)phenyl)-1H-1,2,3-triazol-4-yl)benzoic acid]
Effect on SOCE in wild-type and STIM1 mutated cells (FIG. 4A) (STIM1 mutated proteins): impairs SOCE; also recorded: able to revert the over-activation
Regulation of SOCE (calcium response, representative traces FIG. 2A) ([1]; Fluo-4, 50 μM tBHQ, 2 mM Ca2+ re-addition): negatively
inhibition at 10 µM ([1]; Mus musculus, 10 μM, SOCE inhibition based on tBHQ-induced calcium influx): 45.3%
inhibition at 10 µM [2]: 70.4%
Effect on SOCE in wild-type and Orai1 mutated cells (FIG. 4B) (Orai1 mutated proteins): impairs SOCE; also recorded: able to revert the over-activation

Source: patent publication US10519138B2, “Modulators of SOCE, compositions, and uses thereof” (Università degli Studi del Piemonte Orientale “Amedeo …, priority 2016, dated 2019)
